Measured values from patent US20260272943A1, “Acyl Ethyl Ester Polycyclic Compound, and Pharmaceutical Composition and Use Thereof” (priority 2023, published 2026).
Converted amounts (≈) assume the structure as drawn.

Columns and labels:
[1] = system: H1N1 influenza A virus strain A/FM/1/47; experiment: Anti-influenza virus activity in vitro (inhibition of virus replication in MDCK cells); assay type: cell-based; conditions: 72 h, read-out: EC50 for in vitro inhibition of replication of H1N1 (FM1) influenza virus
[2] = PK study in rats, single oral gavage; assay type: in vivo; conditions: SD rats, single oral gavage 3.0 mg/kg
Experimental: SD rats were administered in a single oral gavage administration with different groups of drugs, including compound I-1-1-2, compound I-1-1-3, compound I-1-1-6, compound I-20, compound II-5, and Baloxavir Marboxil. After administration, plasma at different time points were collected to detect the drug content, and the pharmacokinetic parameters of different groups of drugs in SD rats were calculated and compared.
48 SD rats, weighing 180 g-220 g, with half male and half female, were randomly assigned to 6 groups according to their body weight, with 8 rats in each group. Animal grouping information was as follows:
(§1) After SD rats were randomly assigned to groups, they were fasted for more than 12 hours before administration and were allowed to drink water freely. Drinking water was prohibited from 1 hour before administration to 1 hour after administration. Food was provided 4 hours after administration. Each group was administered with a single oral gavage dose of 3.0 mg/kg. Approximately 0.2 mL of jugular vein blood was collected at 0 h before administration and 5 min, 10 min, 15 min, 30 min, 1 h, 2 h, 4 h, 6 h, 10 h, 24 h and 30 h after administration, and placed in EDTA-K2 anticoagulation tubes.
(§2) After the whole blood was collected, the plasma was separated by centrifugation at 4000 rpm for 10 min at 4° C., and then stored in a refrigerator at −80° C. for testing. The plasma drug concentration of samples in each group was determined by LC-MS/MS.
PK parameters were calculated using a non-compartmental model in Phoenix winnonlin 8.0. Data analysis included Cmax, Tmax, AUC0-t, AUC0-∞∞, t1/2 and other pharmacokinetic parameters.

[3] = PK study in cynomolgus monkeys, single oral gavage; assay type: in vivo; conditions: single oral gavage 5.0 mg/kg
Experimental: Cynomolgus monkeys were administered with a single oral gavage with different groups of drugs, including compound I-1-1-2, compound I-1-1-3 and Baloxavir Marboxil. After administration, plasma at different time points were collected to detect the drug content, and the pharmacokinetic parameters of different groups of drugs in cynomolgus monkeys were calculated and compared.
24 cynomolgus monkeys, aged 3-5 years old and weighing 3 kg-7 kg, with half male and half female, were used and randomly assigned to 3 groups according to their body weight, with 8 monkeys in each group. Animal grouping information was as follows:
as §1, with “After cynomolgus monkeys” for “After SD rats”, “of 5.0” for “of 3.0”, “Approximately 1.0” for “Approximately 0.2”, “h, 8 h, 12” for “h, 10”, “24 h, and 48” for “24”, “h (D2)” for “h and 30 h”
as §2
PK parameters were calculated using non-compartmental model in a Phoenix winnonlin 8.0. Data analysis included Cmax, Tmax, AUC0-t, AUC0-∞∞, t1/2 and other pharmacokinetic parameters.

| Compound | EC50 [1] | Bioavailability (Cmax and AUC0-t) compared with Compound I-20 and Compound II-5 groups [2] | also measured |
| --- | --- | --- | --- |
| CC(=O)OC(C)Oc1c2n(ccc1=O)N([C@@H]1c3ccccc3SCc3c1ccc(F)c3F)[C@@H]1COCCN1C2=O (some centres unmarked) [Compound I-1-1-3] | 0.32 µg/mL (≈ 0.562 µM) | significantly improved | Bioavailability (Cmax and AUC0-t) compared with Baloxavir Marboxil group [2]: significantly improved; Bioavailability (Cmax and AUC0-t) compared with Baloxavir Marboxil group [3]: significantly improved |
| CC(=O)O[C@@H](C)Oc1c2n(ccc1=O)N([C@@H]1c3ccccc3SCc3c1ccc(F)c3F)[C@@H]1COCCN1C2=O [Compound I-1-1-1] | 0.32 µg/mL (≈ 0.562 µM) |  |  |
| COC(=O)OCOc1c2n(ccc1=O)N([C@@H]1c3ccccc3SCc3c1ccc(F)c3F)[C@@H]1COCCN1C2=O [Baloxavir Marboxil, reference compound] | 0.32 µg/mL (≈ 0.56 µM) | significantly improved |  |
| CC(=O)OCOc1c2n(ccc1=O)N([C@@H]1c3ccccc3SCc3c1ccc(F)c3F)[C@@H]1COCCN1C2=O [Compound II-5, reference compound] | 0.32 µg/mL (≈ 0.576 µM) |  |  |
| CC(=O)OC(C)Oc1c2n(ccc1=O)N([C@@H]1c3ccccc3[Se]Cc3c1ccc(F)c3F)[C@@H]1COCCN1C2=O (some centres unmarked) [Compound I-1-1-6] | 0.32 µg/mL (≈ 0.519 µM) |  |  |
| [2H]C([2H])([2H])C(=O)OC(C)Oc1c2n(ccc1=O)N([C@@H]1c3ccccc3SCc3c1ccc(F)c3F)[C@@H]1COCCN1C2=O (some centres unmarked) [Compound I-20, reference compound] | 0.32 µg/mL (≈ 0.559 µM) |  |  |
| CC(=O)O[C@H](C)Oc1c2n(ccc1=O)N([C@@H]1c3ccccc3SCc3c1ccc(F)c3F)[C@@H]1COCCN1C2=O [Compound I-1-1-2] | 0.032 µg/mL (≈ 0.0562 µM) | significantly improved | Bioavailability (Cmax and AUC0-t) compared with Baloxavir Marboxil group [2]: significantly improved; Half-life (t1/2) rank among groups [2]: longest half-life; Bioavailability (Cmax and AUC0-t) compared with Baloxavir Marboxil group [3]: significantly improved; Exposure rank among groups [3]: highest exposure; Half-life rank among groups [3]: longest half-life |
